According to EP2970359B1, “FLUORINATED PYRIMIDINE ANALOGS AND METHODS OF USE THEREOF” (Epigenetics Pharma LLC, priority 2013, dated 2014):
Where “and” joins values, the source holds several entries; their conditions need not be identical. Equal values may be shown once. Entries after “also recorded” stand apart in the source; their conditions may differ. Read-outs that look alike come from different tables or passages of the source.

Columns and labels:
NCI-H460 = test: In vitro cytotoxicity (GI50), non-small cell lung cancer cell line; conditions: Homo sapiens
Method: (§1) The in vitro cytotoxicity was measured in the following cell lines: NCI-H460 (ATCC #HTB-177) (non-small cell lung), HCT-116 (ATCC #CCL-247) (colorectal), HL-60 (ATCC #CCL-240) (leukemia), and MDA-MB-231 (ATCC #HTB-26) (breast). Table 4. Growth Inhibition (GI50) Values (µM) for Selected Cell Lines.

HCT-116 = test: In vitro cytotoxicity (GI50), colorectal cancer cell line; conditions: Homo sapiens
Method: as §1

HL-60 = test: In vitro cytotoxicity (GI50), leukemia cell line; assay type: cell-based; conditions: Homo sapiens
Method: as §1

MDA-MB-231 = test: In vitro cytotoxicity (GI50), breast cancer cell line; conditions: Homo sapiens
Method: as §1

[1] = following subcutaneous administration; reported; cited from earlier work
L1210 [2] = test: In vitro cytotoxicity, leukemia cell line; conditions: for IC50: Mus musculus, L1210, read-out: In vitro cytotoxicity Leukemia L1210
ACHN = test: In vitro cytotoxicity, renal cancer cell line; assay type: cell-based; conditions: Homo sapiens, Table 1, asterisk not explained
THP-1 cells = test: Giemsa stain of treated cells (morphology); assay type: cell-based; conditions: compared to vehicle control, FIGURE 10
OVCAR-8 = test: In vitro cytotoxicity, ovarian cancer cell line; assay type: cell-based; conditions: Homo sapiens, Table 1, asterisk not explained
Kasumi-1 cells [3] = test: Giemsa stain of treated cells (morphology); assay type: cell-based; conditions: compared with vehicle control, FIGURE 11
[4] = known; cleavage of the base at the 6-position of the cytosine ring; cited from earlier work
Kasumi-1 cells [5] = test: Growth inhibition of leukemia cell line compared with decitabine; assay type: cell-based; conditions: Kasumi-1, equimolar concentrations; FIGURE 8
DNMT1 = target: T1, DNMT1 (Homo sapiens, UniProt P26358); test: Western blot of DNMT1 in Kasumi-1 cells; assay type: cell-based; conditions: two concentrations, FIGURE 9
T1 construct: endogenous in cells; host or cells: Kasumi-1

P388 = test: In vitro cytotoxicity, leukemia cell line; conditions: Mus musculus, P388, read-out: In vitro cytotoxicity Leukemia P388*
[6] = system: DNA methyltransferase (DNMT); test: In vitro DNA methyltransferase inhibition in HCT-116 cells (EpiQuick DNA Methyltransferase Activity/Inhibition Assay Kit)
THP-1 leukemia cells = test: Growth inhibition of leukemia cell line compared with decitabine; assay type: cell-based; conditions: THP-1, equimolar concentrations; FIGURE 7
Stability in water = assay type: physicochemical
L1210 [7] = conditions: Table 3
[8] = NCI-H460, read-out: Growth Inhibition (GI50) NCI-H460
[9] = HCT-116, read-out: Growth Inhibition (GI50) HCT-116
[10] = HL-60, Table 4, read-out: Growth Inhibition (GI50) HL-60
[11] = MDA-MB-231, read-out: Growth Inhibition (GI50) MDA-MB-231
[12] = NCI-H460, read-out: In vitro cytotoxicity NSCL NCI-H460
[13] = HCT-116, read-out: In vitro cytotoxicity Colon HCT-116
[14] = MDA-MB-231, read-out: In vitro cytotoxicity Breast MDA-MB-231

T1 sequence (P26358 whole entry): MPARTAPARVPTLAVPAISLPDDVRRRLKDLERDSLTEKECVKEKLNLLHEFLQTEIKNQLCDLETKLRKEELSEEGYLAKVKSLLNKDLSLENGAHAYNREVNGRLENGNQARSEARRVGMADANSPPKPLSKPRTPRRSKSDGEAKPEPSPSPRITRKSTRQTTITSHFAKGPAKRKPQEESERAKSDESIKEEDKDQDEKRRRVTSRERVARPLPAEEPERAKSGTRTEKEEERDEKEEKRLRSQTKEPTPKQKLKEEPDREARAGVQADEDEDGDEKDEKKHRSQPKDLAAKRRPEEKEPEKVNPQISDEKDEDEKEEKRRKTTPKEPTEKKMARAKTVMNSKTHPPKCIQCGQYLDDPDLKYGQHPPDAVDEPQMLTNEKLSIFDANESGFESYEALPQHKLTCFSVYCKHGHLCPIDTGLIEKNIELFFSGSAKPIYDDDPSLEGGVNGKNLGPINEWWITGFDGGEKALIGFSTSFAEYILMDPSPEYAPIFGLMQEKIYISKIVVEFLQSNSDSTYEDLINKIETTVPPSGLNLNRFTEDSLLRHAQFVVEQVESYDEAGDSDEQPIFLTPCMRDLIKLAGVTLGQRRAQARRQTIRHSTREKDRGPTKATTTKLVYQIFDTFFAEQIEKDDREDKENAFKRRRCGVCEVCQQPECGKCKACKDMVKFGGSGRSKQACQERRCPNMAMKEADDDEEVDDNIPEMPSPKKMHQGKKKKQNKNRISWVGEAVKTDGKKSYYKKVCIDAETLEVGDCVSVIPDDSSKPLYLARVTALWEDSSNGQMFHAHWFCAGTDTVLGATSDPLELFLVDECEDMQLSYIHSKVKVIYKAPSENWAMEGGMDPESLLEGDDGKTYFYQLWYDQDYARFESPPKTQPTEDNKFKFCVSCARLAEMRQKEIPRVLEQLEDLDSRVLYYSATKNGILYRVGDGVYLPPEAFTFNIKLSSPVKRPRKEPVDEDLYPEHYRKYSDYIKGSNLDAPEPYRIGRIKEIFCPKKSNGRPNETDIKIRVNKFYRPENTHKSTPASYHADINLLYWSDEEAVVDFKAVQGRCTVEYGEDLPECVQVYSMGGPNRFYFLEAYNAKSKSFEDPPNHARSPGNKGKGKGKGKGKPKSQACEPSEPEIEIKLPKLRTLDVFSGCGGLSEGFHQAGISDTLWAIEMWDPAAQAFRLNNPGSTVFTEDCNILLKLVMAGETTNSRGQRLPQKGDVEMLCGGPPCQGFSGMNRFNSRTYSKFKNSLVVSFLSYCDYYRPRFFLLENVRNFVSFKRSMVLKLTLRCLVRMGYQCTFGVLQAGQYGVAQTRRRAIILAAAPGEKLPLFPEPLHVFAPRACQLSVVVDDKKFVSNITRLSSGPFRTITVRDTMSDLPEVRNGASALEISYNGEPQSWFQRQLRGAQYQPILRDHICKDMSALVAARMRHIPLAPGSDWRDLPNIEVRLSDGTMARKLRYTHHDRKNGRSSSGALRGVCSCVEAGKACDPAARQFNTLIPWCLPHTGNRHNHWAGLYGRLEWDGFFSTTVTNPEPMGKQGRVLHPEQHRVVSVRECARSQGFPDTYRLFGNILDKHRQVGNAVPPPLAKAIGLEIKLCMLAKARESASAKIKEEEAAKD

SMILES | GI50 (NCI-H460; [8]) [µM] | GI50 (HCT-116; [9]) [µM] | GI50 (HL-60; [10]) [µM] | GI50 (MDA-MB-231; [11]) [µM] | IC50 (L1210 [2]) [µM] | IC50 (NCI-H460; [12]) [µM] | IC50 (HCT-116; [13]) [µM] | IC50 (MDA-MB-231; [14]) [µM] | further results
NC1=NC(=O)N([C@@H]2O[C@H](CO)[C@@H](O)[C@H]2O)CN1 [5,6-dihydro-5-azacytidine, reference compound] | 4.84 | 21.4 | 0.03 | > 31.2 | – | – | – | – | –
Nc1ncn([C@@H]2O[C@H](CO)[C@@H](O)[C@H]2O)c(=O)n1 [Azacytidine, 5-azacytidine] | – | – | 0.44 | – | 1.7 to 2.4 | – | – | – | half-life [1]: 41 min
Nc1ncn([C@H]2C[C@H](O)[C@@H](CO)O2)c(=O)n1 [Decitabine, 5-azadeoxycytidine, reference compound] | 13 | > 31.2 | – | > 31.2 | – | 13 to 44 | > 62.5 | > 62.5 | IC50 (ACHN): > 1000 µM; morphologic changes (Giemsa stain) (THP-1 cells): morphologic changes suggestive of cell differentiation; IC50 (OVCAR-8): > 1000 µM; morphologic changes (Giemsa stain) (Kasumi-1 cells [3]): morphologic changes suggestive of cell differentiation; GI50 (HL-60; HL-60, read-out: Growth Inhibition (GI50) HL-60): 0.27 µM; stability in water [4]: unstable in water
Nc1ncn([C@@H]2O[C@H](CO)[C@@H](O)C2(F)F)c(=O)n1 [NUC013, 2',2'-difluoro-5-azadeoxycytidine] | 4.39 | 4.54 | 1.51 | > 31.2 | 1.02 | 4.39 | 4.54 | > 62.5 | inhibitory effect on cell growth / cytoreduction compared with decitabine (Kasumi-1 cells [5]): slightly weaker effect; also recorded: weaker cytoreduction; IC50 (ACHN): 0.89 µM; GI50 (HCT-116; HCT-116): 4.54 µM; DNMT1 inhibition by Western blot compared with equimolar decitabine (DNMT1): weaker DNMT1 inhibition; morphologic changes (Giemsa stain) (THP-1 cells): morphologic changes suggestive of cell differentiation; IC50 (OVCAR-8): 25.9 µM; morphologic changes (Giemsa stain) (Kasumi-1 cells [3]): morphologic changes suggestive of cell differentiation; IC50 (P388): 0.48 µM; Percent Inhibition of DNMT ([6]; 1 µM, 24 hours, HCT-116 cells, one value per experiment (1-4)): 61.73% and 35.77% and 62.63%; potency as a DNMTI relative to 5-azacytidine ([6]; colon cancer cells, FIGURE 6): approximately 10 fold; inhibitory effect on cell growth / cytoreduction compared with decitabine (THP-1 leukemia cells): stronger inhibitory effect; also recorded: stronger cytoreduction
NC1=NC(=O)N([C@@H]2O[C@H](CO)[C@@H](O)C2(F)F)CN1 [NUC014, 2',2'-difluoro-5,6-dihydro-5-azadeoxycytidine] | – | – | – | – | 90.6 | > 31.2 | > 31.2 | > 31.2 | stability in an aqueous environment (Stability in water): stable in an aqueous environment; hydrolytic cleavage at the 6-position of the cytosine (Stability in water; aqueous environment): does not undergo hydrolytic cleavage; cytotoxicity against leukemia cell line L1210 (in words) (L1210 [2]): moderate cytotoxicity
O=c1ncccn1[C@@H]1O[C@H](CO)[C@@H](O)C1(F)F [NUC019, 2'-deoxy-2',2'-difluorozebularine] | 136 | 310 | – | 166 | – | – | – | – | –
O=c1ncccn1[C@H]1O[C@H](CO)[C@@H](O)C1(F)F [NUC020] | – | – | – | – | – | – | – | – | GI50 (NCI-H460; [12]): 136 µM; GI50 (HCT-116; [13]): 279 µM; GI50 (L1210 [7]): 346 µM; GI50 (MDA-MB-231; [14]): 213 µM
O=c1ncccn1[C@@H]1O[C@H](CO)[C@@H](O)[C@H]1O [Zebularine, reference compound] | – | – | – | – | 108 | 99.1 | 47.9 | 144 | –
Nc1ccn([C@@H]2O[C@H](CO)[C@@H](O)C2(F)F)c(=O)n1 [gemcitabine, reference compound] | 0.02 | 0.01 | 0.03 | 0.72 | – | – | – | – | –
